Test [1] deals with gastronintestinal motility. The test can be described thus: Mouse Cecal Test (inhibition of gastrointestinal motility, charcoal in cecum). The format is in vivo, mouse (male Charles River mice). The settings on record: po, read-out: ED50 ± S.E. (median effective dose), Mouse Cecal Test. An excerpt: The compounds of the present invention are useful in consequence of their valuable pharmacological properties. They are, for example, potent anti-diarrheal agents as evidenced by their ability to inhibit gastronintestinal motility as set out in the following tests:
The method used for this assay is a modification of the techniques previously described by Macht and BarbaGose, J. Amer. Pharm. Ass., 20, 558 (1931), and Janssen and Jageneau, J. Pharm. Pharmacol., 9, 381 (1957). Details are as follows:
A group of six, male Charles River mice weighing 20-25 g. which have been previously fasted for 24 hours are pretreated with the test compounds administered orally as a solution in water or suspended in 0.5% methyl cellulose. A constant volume of 10 ml./kg. is employed. Thirty minutes following administration of the test compounds, the animals are given a single oral dose of charcoal which consists of 0.2 ml. per mouse of 10% charcoal suspended in 1.0% methyl cellulose. Three and a half hours after charcoal administration, the animals are sacrificed and the cecum examined for the absence or presence of charcoal on an all-or-none basis.
The median effective dose (ED50) is then calculated for each compound using the logistic method of Berkson (1953).
The median effective dose ± standard Error ED50 ± SE) for the following representative compounds of the present invention in the Mouse Cecal Test are […]

In test [2] the test system is castor oil-induced diarrhea. The test can be described thus: Castor Oil-Induced Diarrhea in the Rat. The note with it: po, read-out: ED50 ± S.E. (median effective dose) at 2 hours past castor oil administration. The format is in vivo, rat (adult Charles River male rats). As to the method:
Castor Oil-Induced Diarrhea in the Rat
Adult Charles River male rats are fasted in community cages for 24 hours prior to the test, with free access to water. The test compound is then administered intragastrically (suspended on 0.5% methyl cellulose) one hour prior to the intragastric adminstration of a dose of 1.0 ml. castor oil per rat. The rats are then observed for the presence or absence of diarrhea at hourly intervals for up to 8 hours past the castor oil adminstration. Using the method of Berkson (1953), the median effective dose (ED50) values are calculated at each hourly interval for the test compound.
The median effective dose at 2 hours past the castor oil adminstration for the following representative compounds of the present invention in the castor oil-induced diarrhea in the Rat test are: […]

Where [3] appears, read: IG, test compound 30 minutes before charcoal, cecum examined 3.5 hours after charcoal.
Where [4] appears, read: IG, test compound one hour before 1.0 ml castor oil, 2 hours past castor oil.

Structures can show the parent of a compound that is named as a salt. Where two headings read alike, the source gives them in different places.

For the compound `C=CCC(CC1CC2CCN1CC2)(c1ccccc1)c1ccccc1` (centres unmarked) [2-(2,2-diphenyl-4-pentenyl)-1-azabicyclo[2.2.2]octane], the ED50 in test [1] (setting [3]) is 1.82 ± 0.45 mg/kg; in test [2] (setting [4]), 1.13 ± 0.18 mg/kg.

As for `CCCCCC(CC1CC2CCN1CC2)(c1ccccc1)c1ccccc1.O=C(O)/C=C\C(=O)O` (centres unmarked) [2-(2,2-diphenylheptyl)-1-azabicyclo[2.2.2]octane maleate], the figures for the ED50 in test [1] and in test [2] (2 h) were 5.84 ± 1.94 mg/kg and 10.2 ± 1.43 mg/kg, respectively.

For the compound `CCCCC(CC1CC2CCN1CC2)(c1ccccc1)c1ccccc1` (centres unmarked) [2-(2,2-diphenylhexyl)-1-azabicyclo[2.2.2]octane], the ED50 in test [1] (setting [3]) was 8.74 ± 3.95 mg/kg; in test [2] (setting [4]), 4.57 ± 0.21 mg/kg.

Regarding `CCCCCCC(CC1CC2CCN1CC2)(c1ccccc1)c1ccccc1.O=C(O)/C=C\C(=O)O` (centres unmarked) [2-(2,2-diphenyloctyl)-1-azabicyclo[2.2.2]octane maleate], the ED50 in test [1] stood at 20.7 ± 12.3 mg/kg.

In the case of `CC(CC1CC2CCN1CC2)(c1ccccc1)c1ccccc1` (centres unmarked) [2-(2,2-diphenylpropyl)-1-azabicyclo[2.2.2]octane], the ED50 in test [1] (setting [3]) came to 43.1 ± 15.5 mg/kg.

Take `CC(C)=CCC(CC1CC2CCN1CC2)(c1ccccc1)c1ccccc1` (centres unmarked) [2-(5-methyl-2,2-diphenylhex-4-enyl)-1-azabicyclo[2.2.2]octane]: the ED50 stood at 1.45 ± 0.66 mg/kg in test [1] (setting [3]) and 1.74 ± 0.53 mg/kg in test [2] (setting [4]).

On to `CCOC(=O)C1(c2ccccc2)CCN(CCC(C#N)(c2ccccc2)c2ccccc2)CC1` [Diphenoxylate . HCl, reference compound], for which the ED50 in test [1] came out at 3.12 ± 1.29 mg/kg.

Source of the values: patent US4125531A, “2-Substituted-1-azabicyclo[2.2.2]octanes” (G. D. Searle & Co., priority 1977, dated 1978).
